Assay results reported in patent US8278338B2 (priority 2004, dated 2012).
Like-named read-outs stand apart in the source and are kept apart here.

How the values were obtained:
human μ-opiate receptor = biological target: T1, human μ-opiate receptor (Homo sapiens, UniProt P35372); assay: Affinity for the human μ-opiate receptor, [3H]-naloxone displacement (SPA) on CHO-K1 receptor membrane preparation; assay type: binding; conditions: for μ-Opioid receptor affinity (% inhibition at 1 μmol./l): 1 μmol./l test substance; for μ-Opioid receptor affinity (% inhibition at 1 μmol./l) / inhibition at 1 µM: inhibition of specific [3H]-naloxone binding; for inhibition at 1 µM: 1.5 h, read-out: μ-Opioid receptor affinity (% inhibition at 1 μmol./l), 1 μmol./l test substance
T1 construct: purchased Perkin Elmer, Zaventem, Belgium RB-HOM; host or cells: CHO-K1 cells
T1 sequence (P35372 whole entry): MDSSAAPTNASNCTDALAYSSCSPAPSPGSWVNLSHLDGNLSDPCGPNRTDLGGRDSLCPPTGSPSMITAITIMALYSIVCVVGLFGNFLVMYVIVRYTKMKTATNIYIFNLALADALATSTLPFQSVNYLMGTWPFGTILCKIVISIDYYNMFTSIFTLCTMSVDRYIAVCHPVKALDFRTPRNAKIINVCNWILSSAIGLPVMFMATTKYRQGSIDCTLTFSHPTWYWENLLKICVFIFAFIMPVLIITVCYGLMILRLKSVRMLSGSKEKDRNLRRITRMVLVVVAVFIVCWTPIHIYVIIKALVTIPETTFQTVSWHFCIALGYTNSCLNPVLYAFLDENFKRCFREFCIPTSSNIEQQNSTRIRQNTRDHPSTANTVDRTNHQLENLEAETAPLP
Procedure: The receptor affinity for the human μ-opiate receptor was determined in a homogeneous batch on microtitre plates. To that end, serial dilutions of the substances to be tested were incubated for 90 minutes at room temperature with a receptor membrane preparation (15-40 μg of protein/250 μl of incubation batch) of CHO-K1 cells, which express the human μ-opiate receptor (RB-HOM receptor membrane preparation from Perkin Elmer, Zaventem, Belgium), in the presence of 1 nmol./l of the radioactive ligand [^3H]-naloxone (NET719, Perkin Elmer, Zaventem, Belgium) and 1 mg of WGA-SPA beads (wheatgerm agglutinin SPA beads from Amersham/Pharmacia, Freiburg, Germany) in a total volume of 250 μl. The incubation buffer used was 50 mmol./l of Tris-HCl supplemented with 50 μM MgCl2 and 0.05% bovine serum albumin. In order to determine non-specific binding, 100 μmol./l of naloxone were additionally added. When the ninety-minute incubation time was complete, the microtitre plates were centrifuged off for 20 minutes at 1000 g and the radioactivity was measured in a β-counter (Microbeta-Trilux, PerkinElmer, Freiburg, Germany). The percentage displacement of the radioactive ligand from its binding to the human μ-opiate receptor at a concentration of the test substances of 1 μmol./l was determined and stated as the percentage inhibition of specific binding. […] Ki values for the test substances were obtained by conversion by means of the Cheng-Prusoff equation (Cheng and Prusoff 1973).

5-HT reuptake = 5-HT reuptake (Rattus norvegicus, UniProt P31652); assay: biochemical; conditions: for inhibition at 10 µM: read-out: Inhibition of 5-HT reuptake (% inhibition at 10 μmol./l), 10 μmol./l
5-HT reuptake, sequence (P31652 whole entry): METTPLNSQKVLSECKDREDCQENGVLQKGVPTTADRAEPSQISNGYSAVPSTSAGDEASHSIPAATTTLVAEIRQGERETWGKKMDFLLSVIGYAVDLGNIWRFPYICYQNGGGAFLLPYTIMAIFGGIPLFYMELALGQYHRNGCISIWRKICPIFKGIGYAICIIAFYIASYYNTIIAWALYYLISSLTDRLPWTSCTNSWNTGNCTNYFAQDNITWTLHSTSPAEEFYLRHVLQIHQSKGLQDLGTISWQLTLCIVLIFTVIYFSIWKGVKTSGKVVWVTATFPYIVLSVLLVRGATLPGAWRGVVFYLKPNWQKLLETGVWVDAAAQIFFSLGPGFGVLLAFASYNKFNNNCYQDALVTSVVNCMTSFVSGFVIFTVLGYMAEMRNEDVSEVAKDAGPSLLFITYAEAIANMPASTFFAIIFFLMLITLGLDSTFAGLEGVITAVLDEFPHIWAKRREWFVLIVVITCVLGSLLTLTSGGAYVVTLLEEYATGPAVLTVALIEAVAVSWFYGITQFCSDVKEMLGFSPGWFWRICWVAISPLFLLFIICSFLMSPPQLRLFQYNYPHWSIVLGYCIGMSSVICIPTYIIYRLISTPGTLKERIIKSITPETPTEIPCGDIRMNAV
Source text: In order to be able to carry out these in vitro studies, synaptosomes were freshly isolated from areas of rat brain. […] For NA reuptake, these vesicular particles were isolated from the hypothalamus of male rat brains, and for 5HT reuptake, they were isolated from the medulla+pons region.
The IC50 values were obtained with the aid of the “Figure P” computer program (Version 6.0, Biosoft, Cambridge, England). […] The “Ligand” computer program (Version 4, Biosoft, England) was used to show KD values.

NA reuptake = biological target: T2, NA reuptake (Rattus norvegicus, UniProt Q63380); assay: Inhibition of NA reuptake in rat brain synaptosomes (hypothalamus, P2 fraction); assay type: biochemical; conditions: for inhibition at 10 µM: 10 μmol./l
T2 construct: isolated from the hypothalamus of male rat brains; from tissue; host or cells: rat brain synaptosomes (P2 fraction), hypothalamus of male rats
T2 sequence (Q63380 1-617): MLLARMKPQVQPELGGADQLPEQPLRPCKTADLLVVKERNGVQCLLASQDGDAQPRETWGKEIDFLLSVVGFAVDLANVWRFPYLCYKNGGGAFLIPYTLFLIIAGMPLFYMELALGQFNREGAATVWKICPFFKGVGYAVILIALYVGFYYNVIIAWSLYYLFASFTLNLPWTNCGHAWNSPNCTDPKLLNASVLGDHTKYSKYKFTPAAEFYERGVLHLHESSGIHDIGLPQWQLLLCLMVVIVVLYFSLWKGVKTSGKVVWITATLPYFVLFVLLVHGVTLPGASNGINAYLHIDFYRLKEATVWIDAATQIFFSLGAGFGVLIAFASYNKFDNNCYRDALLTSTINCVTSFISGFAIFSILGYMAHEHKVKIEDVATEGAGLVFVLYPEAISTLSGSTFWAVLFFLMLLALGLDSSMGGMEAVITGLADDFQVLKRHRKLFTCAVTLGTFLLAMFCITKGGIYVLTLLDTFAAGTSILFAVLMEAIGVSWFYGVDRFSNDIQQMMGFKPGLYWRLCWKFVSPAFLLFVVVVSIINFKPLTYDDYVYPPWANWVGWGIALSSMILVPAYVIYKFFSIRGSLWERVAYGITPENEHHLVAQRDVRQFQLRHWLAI
Procedure: In order to be able to carry out these in vitro studies, synaptosomes were freshly isolated from areas of rat brain. A so-called “P2” fraction was used in each case, which was prepared exactly according to the procedure of Gray, E. G. and Whittaker, V. P. (1962, J. Anat. […], 79-88). For NA reuptake, these vesicular particles were isolated from the hypothalamus of male rat brains, and for 5HT reuptake, they were isolated from the medulla+pons region.
IC50 values were obtained thereby which can be converted into inhibitor constants (Ki) according to the “Cheng-Prusoff equation” (Cheng, Y. C. and Prusoff, W. H., 1973, Biochem. Pharmacol. 22, 3099-3108). The IC50 values were obtained with the aid of the “Figure P” computer program (Version 6.0, Biosoft, Cambridge, England). Km values were calculated according to Lineweaver, H. and Burk, D. (1934, J. Am. Chem. Soc. 56, 658-666). The “Ligand” computer program (Version 4, Biosoft, England) was used to show KD values.

rat = assay: Formalin test in the rat (phase 2, chronic pain component); assay type: in vivo; conditions: for Inhibition of the nociceptive behaviour versus control (% inhibition): phase 2
Procedure: The formalin test (Dubuisson, D. and Dennis, S. G., 1977, Pain, 4, 161-174) represents a model for acute and chronic pain. By means of a single formalin injection into the dorsal side of a rear paw, a biphase nociceptive reaction was induced in freely mobile test animals; the reaction was assessed by observing three behaviour patterns which are clearly distinguishable from one another. The reaction is two-phase: phase 1=immediate reaction (duration up to 10 minutes; shaking of the paw, licking), phase 2=late reaction (after a rest phase; likewise shaking of the paw, licking; duration up to 60 minutes). The first phase reflects a direct stimulation of the peripheral nocisensors with a high spinal nociceptive input or glutamate release (acute pain phase); the second phase reflects a spinal and peripheral hypersensitisation (chronic pain phase). In the studies presented here, the chronic pain component (phase 2) was evaluated.
Formalin was administered subcutaneously in a volume of 50 μl and a concentration of 5% into the dorsal side of the right rear paw of each animal. The specific behavioural changes, such as lifting and shaking of the paw, weight shifting of the animal and biting and licking reactions, were observed and recorded over an observation period of from 21 to 27 minutes after the formalin injection. The various behaviours were combined to give the so-called pain rate (PR) which, based on 3-minute intervals, represents the calculation of a mean nociceptive reaction. The PR was calculated on the basis of a numerical weighting (=in each case factor 1, 2, 3) of the observed behaviours (corresponding to behaviour score 1, 2, 3) and was calculated using the following formula:
The size of the group was 10 animals (n=10).
On the basis of the PR calculations, the activity of the substance was determined in percent as the change relative to a control. The ED50 was determined by means of regression analysis.

[1] = rat synaptosomes, Cheng-Prusoff
[2] = Cheng-Prusoff from IC50, [3H]-naloxone 1 nmol./l, read-out: μ-Opioid receptor affinity, Ki

Compound | inhibition at 10 µM (NA reuptake) | inhibition at 1 µM (human μ-opiate receptor) | inhibition at 10 µM (5-HT reuptake; rat synaptosomes) | further results
CN(C)CC1Cc2ccccc2C1(O)c1cccnc1 (single isomer, unassigned) [Example 1, 2-dimethylaminomethyl-1-pyridin-3-yl-indan-1-ol] | 33% |  |  | μ-Opioid receptor affinity (% inhibition at 1 μmol./l) (human μ-opiate receptor): 1%; Inhibition of 5-HT reuptake (% inhibition at 10 μmol./l) (5-HT reuptake; rat synaptosomes): 63%
CN(C)CC1Cc2ccccc2C1(O)c1cccnc1 (single isomer, unassigned) [Example 2, 2-dimethylaminomethyl-1-pyridin-3-yl-indan-1-ol] |  |  |  | μ-Opioid receptor affinity (% inhibition at 1 μmol./l) (human μ-opiate receptor): 60%; Inhibition of 5-HT reuptake (% inhibition at 10 μmol./l) (5-HT reuptake; rat synaptosomes): 89%; Inhibition of NA reuptake (% inhibition at 10 μmol./l) (NA reuptake): 43%; Inhibition of the nociceptive behaviour versus control (% inhibition) (rat; 46.4 mg/kg i.v.): −80.6%
CNCC[C@H](Oc1cccc2ccccc12)c1cccs1 [Duloxetin, duloxetin, reference compound] |  |  |  | μ-Opioid receptor affinity (% inhibition at 1 μmol./l) (human μ-opiate receptor): −10%; Inhibition of the nociceptive behaviour versus control, ED50 value (rat; i.v., phase 2, regression analysis): 1.43 mg/kg
CN(C)CC1Cc2ccccc2C1c1cccnc1 (stereo not drawn) [Example 4, dimethyl-(1-pyridin-3-yl-indan-2-ylmethyl)-amine] | 46% | 31% | 86% | Inhibition of the nociceptive behaviour versus control (% inhibition) (rat; 4.64 mg/kg i.v.): −61.60%
COc1ccc2c(c1)CC(CN(C)C)C2(O)c1cccnc1 (stereo not drawn) [Example 5, 2-dimethylaminomethyl-5-methoxy-1-pyridin-3-yl-indan-1-ol] | 29% | 49% |  | Ki (5-HT reuptake; [1]): 170 nM; Inhibition of the nociceptive behaviour versus control (% inhibition) (rat; 21.5 mg/kg i.v.): −43.0%
CN(C)CC1=C(c2cccnc2)c2ccc(O)cc2C1 [Example 7, 2-dimethylaminomethyl-1-pyridin-3-yl-3H-inden-5-ol] | 59% |  |  | Ki (human μ-opiate receptor; [2]): 380 nM; Ki (5-HT reuptake): 25 nM; ED50 (rat; iv, phase 2, regression analysis, read-out: Inhibition of the nociceptive behaviour versus control, ED50 value): 2.93 mg/kg
CN(C)CC1CCc2ccccc2C1(O)c1cccnc1 (stereo not drawn) [Example 8, 2-dimethylaminomethyl-1-pyridin-3-yl-1,2,3,4-tetrahydro-naphthalen-1-ol] |  |  |  | Inhibition of the nociceptive behaviour versus control (% inhibition) (rat; 46.4 mg/kg i.v.): −65.8%
CN(C)CC1CCCc2ccccc2C1(O)c1cccnc1 (stereo not drawn) [Example 11, 6-dimethylaminomethyl-5-pyridin-3-yl-6,7,8,9-tetrahydro-5H-benzocyclohepten-5-ol] | 39% | 20% |  | Ki (5-HT reuptake): 28 nM
CN(C)CC1=C(c2cccnc2)c2ccccc2[S+]([O-])CC1 (stereo not drawn) [Example 16, dimethyl-(1-oxo-5-pyridin-3-yl-2,3-dihydro-1H-1λ4-benzo[b]thiepin-4-ylmethyl)-amine] | -2% |  | 35% | Ki (human μ-opiate receptor; [2]): 210 nM
CN(C)CC1CCS(=O)(=O)c2ccccc2C1(O)c1cccnc1 (stereo not drawn) [Example 17, 4-dimethylaminomethyl-1,1-dioxo-5-pyridin-3-yl-2,3,4,5-tetrahydro-1H-1λ6-benzo[b]thiepin-5-ol] | 19% | -13% | 57% | 
CN(C)CC1Cc2cc(F)ccc2C1(O)c1cccnc1 (stereo not drawn) [Example 18, 2-dimethylaminomethyl-5-fluoro-1-pyridin-3-yl-indan-1-ol] | 29% | -6% | 56% | 
CN(C)CC1=C(c2cccnc2)c2ccc(F)cc2C1 [Example 19, (6-fluoro-3-pyridin-3-yl-1H-inden-2-ylmethyl)-dimethyl-amine] | 31% |  |  | Ki (human μ-opiate receptor): 290 nM; Ki (5-HT reuptake; [1]): 43 nM
CN(C)CC1Cc2cc(OC(F)(F)F)ccc2C1(O)c1cccnc1 (stereo not drawn) [Example 20, 2-dimethylaminomethyl-1-pyridin-3-yl-5-trifluoromethoxy-indan-1-ol] | 38% | -19% | 71% | 
CN(C)CC1=C(c2cccnc2)c2ccc(OC(F)(F)F)cc2C1 [Example 21, dimethyl-(3-pyridin-3-yl-6-trifluoromethoxy-1H-inden-2-ylmethyl)-amine] | 14% | 5% |  | Ki (5-HT reuptake; [1]): 430 nM
CN(C)CC1Cc2cc(C(F)(F)F)ccc2C1(O)c1cccnc1 (stereo not drawn) [Example 22, 2-dimethylaminomethyl-1-pyridin-3-yl-5-trifluoromethyl-indan-1-ol] | 17% | 2% | 61% | 
CN(C)CC1=C(c2cccnc2)c2ccc(C(F)(F)F)cc2C1 [Example 23, dimethyl-(3-pyridin-3-yl-6-trifluoromethyl-1H-inden-2-ylmethyl)-amine] | 6% | -8% | 47% | 
CN(C)CC1CCOc2ccccc2C1(O)c1cccnc1 (stereo not drawn) [Example 24, 4-dimethylaminomethyl-5-pyridin-3-yl-2,3,4,5-tetrahydro-benzo[b]oxepin-5-ol] | 9% | 45% | 12% | 
CN(C)CC1=C(c2cccnc2)c2ccccc2OCC1 [Example 26, dimethyl-(5-pyridin-3-yl-2,3-dihydro-benzo[b]oxepin-4-ylmethyl)-amine] | 9% | 37% | 50% | 
CN(C)CC1CSc2ccccc2C1(O)c1cccnc1 (stereo not drawn) [Example 31, 3-dimethylaminomethyl-4-pyridin-3-yl-thiochroman-4-ol] | 48% |  | -4% | 
COc1cccc2c1CCC(CN(C)C)C2(O)c1cccnc1 (stereo not drawn) [Example 36, 2-dimethylaminomethyl-5-methoxy-1-pyridin-3-yl-1,2,3,4-tetrahydro-naphthalen-1-ol] | 49% |  | 33% | μ-Opioid receptor affinity (% inhibition at 1 μmol./l) (human μ-opiate receptor): −14%
COc1cccc2c1CCC(CN(C)C)C2(O)c1cccnc1 (stereo not drawn) [Example 37, 2-dimethylaminomethyl-5-methoxy-1-pyridin-3-yl-1,2,3,4-tetrahydro-naphthalen-1-ol] |  |  |  | μ-Opioid receptor affinity (% inhibition at 1 μmol./l) (human μ-opiate receptor): 8%; Inhibition of 5-HT reuptake (% inhibition at 10 μmol./l) (5-HT reuptake; rat synaptosomes): 19%; Inhibition of NA reuptake (% inhibition at 10 μmol./l) (NA reuptake): 57%
COc1cccc2c1CCC(CN(C)C)=C2c1cccnc1 [Example 38, (5-methoxy-1-pyridin-3-yl-3,4-dihydro-naphthalen-2-ylmethyl)-dimethyl-amine] | 34% |  |  | Ki (human μ-opiate receptor; [2]): 460 nM; Ki (5-HT reuptake; [1]): 370 nM
CN(C)CC1=C(c2cccnc2)c2cccc(O)c2CC1 [Example 39, 6-dimethylaminomethyl-5-pyridin-3-yl-7,8-dihydro-naphthalen-1-ol] | 50% |  |  | Ki (human μ-opiate receptor): 20 nM; Ki (5-HT reuptake): 250 nM
